Values quoted from earlier work in patent US20120289547A1, “COMBINATIONS OF PROPIVERINE AND SALIVARY STIMULANTS FOR THE TREATMENT OF OVERACTIVE BLADDER” (THERAVIDA, INC., priority 2011, published 2012).

Conditions: 5 mg of pilocarpine

CC[C@@H]1C(=O)OC[C@@H]1Cc1cncn1C [pilocarpine]
Time of maximum saliva output after administration: about 30 minutes
